Legend:
[1] = tested on: glial fibrillary acidic protein GFAP; assay: Glial activation, GFAP immunohistochemistry score in db/db mice; type: in vivo
Text: (§1) The db/db mice have a mutation in the leptin receptor gene and they are an animal model of retinal neurodegeneration. Such model is useful to mime the pathophysiological events which are found in neurodegenerative pathologies such as glaucoma.
[…] Citicoline 0.5% (Cit.) in 10% lactose solution administered with nasogastric tube (SNG); • 2. […] 10% lactose solution (Placebo) administered with SNG; • 5. Healthy, non-diabetic control (Control).
Through immunohistochemical assays, neurodegeneration histological markers were researched (glial activation and apoptosis):
(iii) The glial activation was evaluated by means of confocal laser scanning microscopy by using antibodies directed to the glial fibrillary acidic protein GFAP (anti-GFAP of rabbit). To evaluate the level of glial activation a scoring system (from 1 to 5) was used based upon the extension of GFAP (glial fibrillary acidic protein) colouring.
The sections were fixed in methanol (−20° C.) for 2 minutes, followed by three washing with saline phosphate buffer PBS (5 minutes each one). The sections were treated with Tris Saline Buffer TBS-Triton X-100 (0.025%) and incubated in a 1% solution of bovine albumin serum BSA and 10% goat serum in PBS for 2 hours at room temperature. The sections were then incubated with anti-GFAP of rabbit overnight at 4° C. in humid atmosphere. After three washing in PBS, 5 minutes each one, the sections were incubated with the secondary antibody Alexa AF488 goat-anti-rabbit (dilution 1:200 prepared in blocking solution). The sections were washed in PBS, coloured with Hoestch and assembled with means Flourescence Mounting Medium with a cover glass. Once the mounting support has dried up, comparative digital images of the samples were recorded with a confocal laser scanning microscope Fluoview FV 1000 Olympus (Olympus, Shinjuku, Tokyo, Japan) by using identical brightness and contrast settings.

[2] = tested on: patients affected by open-angle glaucoma; assay: Clinical observation: visual field testing by automatic perimetry (MD); type: in vivo, human; conditions: for change in MD: 6 months, vs baseline or not treated group; for MD: after 6 months of treatment, in addition to hypotensive therapy, 3 patients
Description: 12 randomized patients were included in 4 groups: • CIT. GROUP-3 patients treated with citicoline in oral solution 10 ml/die corresponding to 500 mg/die of citicoline, in addition to the hypotensive therapy; • NIC. […] The patients were treated and followed for 6 months. At baseline and after 6 months of treatment complete eye examination including visual acuity, control of the intraocular pressure (IOP) with Goldmann tonometry (GAT); visual field testing, electro-functional and morphological examination were performed. (1) The visual field testing was performed with automatic perimetry (HFA, Sita Standard 24-2 protocol; Zeiss, San Leandro, CA, USA). Such analysis represents the gold standard for diagnosis and follow-up of the glaucomatous patient and allows to represent graphically the extension in the space of the visual capability, by measuring even the peripheral vison thereof. Two analyses on each examination were performed and the second test was considered for the analysis. To perform the test, the patients were positioned in front of the instrument. After having rested forehead and chin inside the dome, with the covered unexamined eye, they started to fix a central target and pressed a button whenever they perceived against themselves aluminous stimulus, even if with poor intensity. MD was considered as perimetric index.

synaptophysin = assay: Synaptophysin quantification by immunofluorescence in retina of db/db mice; type: in vivo; conditions: vs placebo and healthy control
Text: as §1
20 db/db […] (BKS.Cg-+Leprdb/+Leprdb/OlaHsd, males, 10 weeks) were randomized in 5 groups and treated for 15 days by oral route with oral solutions based on: • 1. Citicoline 0.5% (Cit.) in 10% lactose solution administered with nasogastric tube (SNG); • 2. […] 10% lactose solution (Placebo) administered with SNG; • 5. Healthy, non-diabetic control (Control).
(v) The quantification of caspase-3 and of synaptophysin was performed by means of immunofluorescence. The sections were fixed in methanol (20° C.) for 1 min and washed with buffered saline solution (PBS) 0.01 M at pH 7.4. Then, the sections were incubated in 10% solution NGS, 0.1% Triton X-100, PBS for 1 hour at room environment and subsequently incubated with a specific primary antibody (respectively anti-caspase-3 and anti-synaptophysin monoclonal antibody of rabbit) one night at 4° C. […] Five fields (three corresponding to the central retina and two to the peripheral one) were analysed. The fluorescence intensity of images was quantified with software ImageJ.

[3] = tested on: layer of the RNFL nerve fibres; assay: Clinical observation: RNFL thickness by SD-OCT; type: in vivo, human; conditions: after 6 months of treatment, in addition to hypotensive therapy, 3 patients
Description: 12 randomized patients were included in 4 groups: • CIT. GROUP-3 patients treated with citicoline in oral solution 10 ml/die corresponding to 500 mg/die of citicoline, in addition to the hypotensive therapy; • NIC. […] The patients were treated and followed for 6 months. At baseline and after 6 months of treatment complete eye examination including visual acuity, control of the intraocular pressure (IOP) with Goldmann tonometry (GAT); visual field testing, electro-functional and morphological examination were performed. (3) The evaluation of the thickness of the layer of the RNFL nerve fibres was performed with spectral-domain optical coherence tomography SD-OCT (RTVue Model-RT100 version 3.5; Optovue Inc, Fremont, CA, USA). Such analysis allows a tomographic survey of retina capable of highlighting, through high-resolution cross sections, structural details of the cellular layers and of their plexuses and allows a qualitative and quantitative analysis of the retinal alterations. The patients were positioned in front of the instrument and invited to observe a luminous target: the instrument, once the ocular structure to be analysed is focused, performs the scanning.

[4] = tested on: patients affected by open-angle glaucoma; assay: Clinical observation in open-angle glaucoma patients: intraocular pressure (Goldmann tonometry); type: in vivo, human; conditions: after 6 months of treatment, in addition to hypotensive therapy, 3 patients
Description: 12 randomized patients were included in 4 groups: • CIT. GROUP-3 patients treated with citicoline in oral solution 10 ml/die corresponding to 500 mg/die of citicoline, in addition to the hypotensive therapy; • NIC. […] The patients were treated and followed for 6 months. At baseline and after 6 months of treatment complete eye examination including visual acuity, control of the intraocular pressure (IOP) with Goldmann tonometry (GAT); visual field testing, electro-functional and morphological examination were performed.

With `C[N+](C)(C)CCOP(=O)([O-])OP(=O)(O)OC[C@H]1O[C@@H](n2ccc(N)nc2=O)C(O)C1O` (some centres unmarked) [Citicoline, citidin-5′-difosfocholine] the “GFAP score 1, share of mice” value [1] was 71%, the “GFAP score 2, share of mice” value [1] was 22% and the “GFAP score 3, share of mice” value [1] was 7%. The “GFAP score 4, share of mice” value [1] was 0%, the “GFAP score 5, share of mice” value [1] was 0% and the “change in MD” value [2] was “significant improvement in MD with respect to the baseline”. For the same molecule, the MD [2] was −8.70 (±2.8), the levels of synaptophysin (synaptophysin) was “statistically significant increase in the levels of synaptophysin” and the RNFL-TO [3] was 65.0 (±12.0). The IOP [4] was 13.8 (±1.8).

For `NC(=O)c1cccnc1` [Nicotinamide], the “GFAP score 1, share of mice” value [1] was 72%, the “GFAP score 2, share of mice” value [1] was 18% and the “GFAP score 3, share of mice” value [1] was 10%. For the same molecule, the “GFAP score 4, share of mice” value [1] was 0%, the “GFAP score 5, share of mice” value [1] was 0% and the “change in MD” value [2] was “lower reduction in the MD value with respect to the not treated group”. For the same molecule, the MD [2] was −8.92 (±2.6)*^, the levels of synaptophysin (synaptophysin) was “statistically significant increase in the levels of synaptophysin” and the RNFL-TO [3] was 61.1 (±12.5). The IOP [4] was 14.0 (±2.3)^.
